Experimental data from ChEMBL document CHEMBL3526031, “Mechanistic studies on the absorption and disposition of scutellarin in humans: selective OATP2B1-mediated hepatic uptake is a likely key determinant for its unique pharmacokinetic characteristics” (Drug Metab Dispos, 2012).

Experiments:
[1] = target: T1, Solute carrier organic anion transporter family member 2B1 (Homo sapiens, UniProt O94956); assay: Ratio of Vmax to Km for drug uptake assessed as OATP2B1 (unknown origin)-mediated drug transport expressed in HEK293 cells by LC-MS/MS analysis; format: ADME, cell-based
T1 sequence (O94956 whole entry): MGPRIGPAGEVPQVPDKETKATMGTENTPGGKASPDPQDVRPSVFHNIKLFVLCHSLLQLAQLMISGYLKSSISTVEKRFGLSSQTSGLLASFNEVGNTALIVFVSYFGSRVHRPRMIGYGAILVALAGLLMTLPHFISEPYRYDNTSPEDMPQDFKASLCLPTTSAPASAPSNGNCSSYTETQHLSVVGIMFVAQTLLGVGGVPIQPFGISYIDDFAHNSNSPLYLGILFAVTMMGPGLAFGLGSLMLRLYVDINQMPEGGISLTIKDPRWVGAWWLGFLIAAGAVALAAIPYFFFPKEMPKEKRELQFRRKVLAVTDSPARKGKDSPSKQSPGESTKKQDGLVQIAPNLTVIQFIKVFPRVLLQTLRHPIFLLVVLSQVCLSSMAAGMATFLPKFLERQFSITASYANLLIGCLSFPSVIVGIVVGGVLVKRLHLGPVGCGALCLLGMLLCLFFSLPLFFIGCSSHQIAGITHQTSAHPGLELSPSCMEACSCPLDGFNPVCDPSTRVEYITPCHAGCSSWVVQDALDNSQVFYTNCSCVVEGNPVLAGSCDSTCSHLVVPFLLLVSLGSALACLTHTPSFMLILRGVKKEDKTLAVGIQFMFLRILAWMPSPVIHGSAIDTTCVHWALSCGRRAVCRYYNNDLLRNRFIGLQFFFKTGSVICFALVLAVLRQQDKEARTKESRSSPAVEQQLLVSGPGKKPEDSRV

[2] = target: T2, UDP-glucuronosyltransferase 1A1 (Homo sapiens, UniProt P22309); assay: Drug metabolism assessed as human recombinant UGT1A1-mediated formation of scutellarein-6,7-diglucuronide after 25 mins by HPLC/UV analysis; format: ADME
T2 sequence (P22309 whole entry): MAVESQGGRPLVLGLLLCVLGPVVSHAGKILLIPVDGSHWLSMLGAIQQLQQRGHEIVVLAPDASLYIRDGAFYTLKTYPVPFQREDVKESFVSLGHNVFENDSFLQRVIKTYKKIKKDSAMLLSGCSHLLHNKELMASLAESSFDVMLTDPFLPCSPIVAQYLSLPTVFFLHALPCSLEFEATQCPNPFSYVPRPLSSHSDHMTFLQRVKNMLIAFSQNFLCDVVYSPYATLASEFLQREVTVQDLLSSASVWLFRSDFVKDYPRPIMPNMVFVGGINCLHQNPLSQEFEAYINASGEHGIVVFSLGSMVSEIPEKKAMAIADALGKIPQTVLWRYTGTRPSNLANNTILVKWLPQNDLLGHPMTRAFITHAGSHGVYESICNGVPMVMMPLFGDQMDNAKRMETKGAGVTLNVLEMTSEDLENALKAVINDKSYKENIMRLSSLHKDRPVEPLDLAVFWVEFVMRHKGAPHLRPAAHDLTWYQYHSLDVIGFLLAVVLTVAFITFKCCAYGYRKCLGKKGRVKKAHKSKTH

[3] = Cmax in human at 60 mg, po; format: ADME, organism-based; set-up: dose 60 mg, route oral; details: in vivo
Homo sapiens = assay: Drug level in human assessed as retention time treated with 40 mg, po of scutellarin measured up to 20 hrs by mass defect filter chromatogram analysis; format: ADME, organism-based
[4] = target: T3, UDP-glucuronosyltransferase 1A10 (Homo sapiens, UniProt Q9HAW8); assay: Ratio of Vmax to Km for drug metabolism assessed as human recombinant UGT1A10-mediated formation of scutellarein-6,7-diglucuronide after 25 mins by HPLC/UV analysis; format: ADME; details: recombinant enzyme
T3 sequence (Q9HAW8 whole entry): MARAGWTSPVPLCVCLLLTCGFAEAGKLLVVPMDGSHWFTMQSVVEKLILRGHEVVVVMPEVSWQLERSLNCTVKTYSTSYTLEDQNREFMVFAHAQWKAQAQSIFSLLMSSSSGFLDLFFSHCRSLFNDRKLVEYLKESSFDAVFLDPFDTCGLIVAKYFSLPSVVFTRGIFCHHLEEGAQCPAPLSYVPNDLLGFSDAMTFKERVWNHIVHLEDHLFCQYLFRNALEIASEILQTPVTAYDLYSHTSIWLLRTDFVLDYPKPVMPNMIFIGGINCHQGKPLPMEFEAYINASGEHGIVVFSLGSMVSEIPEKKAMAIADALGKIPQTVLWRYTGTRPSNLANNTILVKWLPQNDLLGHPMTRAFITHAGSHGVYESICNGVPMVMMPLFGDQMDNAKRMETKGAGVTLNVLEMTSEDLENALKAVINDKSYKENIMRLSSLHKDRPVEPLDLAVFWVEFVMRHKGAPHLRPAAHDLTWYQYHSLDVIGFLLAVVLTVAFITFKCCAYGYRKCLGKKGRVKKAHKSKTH

O=C(O)[C@H]1O[C@@H](Oc2cc3oc(-c4ccc(O)cc4)cc(=O)c3c(O)c2O)[C@H](O)[C@@H](O)[C@@H]1O [SCUTELLARIN]
Vmax/Km [1]: 11.1 µL/min/mg
Ki [2]: 96.6 µM
Cmax [3]: < 4 nM

O=C(O)[C@H]1O[C@@H](Oc2c(O)cc3oc(-c4ccc(O)cc4)cc(=O)c3c2O)[C@H](O)[C@@H](O)[C@@H]1O
Retention_time (Homo sapiens): 9.19 min
Vmax/Km [4]: 2.84 µL/min/mg
